Assay results reported in patent US20060281700A1, “SYNERGISTIC MODULATION OF FLT3 KINASE USING AMINOPYRIMIDINES KINASE MODULATORS” (priority 2005, published 2006).

molecular target: T1, wild-type FLT3 phosphorylation in Baf3 FLT3 cells (Homo sapiens, UniProt P36888); assay: Cell-Based FLT3 Receptor Elisa; details: 1 hour compound, 100 ng/mL Flt ligand 10 min; uncertainty ±20%
T1 sequence (P36888 27-993): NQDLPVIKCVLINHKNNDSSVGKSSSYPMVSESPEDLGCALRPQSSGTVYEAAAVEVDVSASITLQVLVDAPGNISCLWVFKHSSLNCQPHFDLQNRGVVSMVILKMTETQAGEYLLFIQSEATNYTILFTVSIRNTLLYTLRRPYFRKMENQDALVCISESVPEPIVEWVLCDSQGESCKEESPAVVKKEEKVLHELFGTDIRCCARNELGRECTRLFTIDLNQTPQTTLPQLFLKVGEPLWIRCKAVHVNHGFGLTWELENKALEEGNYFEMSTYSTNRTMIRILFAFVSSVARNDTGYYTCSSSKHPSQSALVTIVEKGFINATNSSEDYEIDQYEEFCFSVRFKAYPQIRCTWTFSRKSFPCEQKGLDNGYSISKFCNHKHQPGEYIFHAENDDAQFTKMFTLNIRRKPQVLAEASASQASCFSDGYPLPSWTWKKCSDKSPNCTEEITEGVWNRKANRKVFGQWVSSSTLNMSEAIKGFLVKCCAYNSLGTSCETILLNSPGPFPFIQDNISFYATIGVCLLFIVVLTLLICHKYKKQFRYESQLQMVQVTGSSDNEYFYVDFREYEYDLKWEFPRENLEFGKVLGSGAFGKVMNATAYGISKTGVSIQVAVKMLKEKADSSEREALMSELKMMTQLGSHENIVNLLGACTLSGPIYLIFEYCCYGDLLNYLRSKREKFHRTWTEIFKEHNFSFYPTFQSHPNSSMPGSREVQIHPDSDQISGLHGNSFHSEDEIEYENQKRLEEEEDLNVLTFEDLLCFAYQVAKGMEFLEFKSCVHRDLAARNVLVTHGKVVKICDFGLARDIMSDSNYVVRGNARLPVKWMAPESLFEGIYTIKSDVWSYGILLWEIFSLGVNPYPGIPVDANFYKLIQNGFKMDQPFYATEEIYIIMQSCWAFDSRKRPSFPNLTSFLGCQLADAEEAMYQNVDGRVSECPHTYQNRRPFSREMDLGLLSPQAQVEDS
Protocol: Cell-Based FLT3 Receptor Elisa
Specific cellular inhibition of FLT ligand-induced wild-type FLT3 phosphorylation was measured in the following manner: Baf3 FLT3 cells overexpressing the FLT3 receptor were obtained from Dr. Michael Heinrich (Oregon Health and Sciences University). The Baf3 FLT3 cell lines were created by stable transfection of parental Baf3 cells (a murine B cell lymphoma line dependent on the cytokine IL-3 for growth) with wild-type FLT3. Cells were selected for their ability to grow in the absence of IL-3 and in the presence of FLT3 ligand.
Baf3 cells were maintained in RPMI 1640 with 10% FBS, penn/strep and 10 ng/ml FLT ligand at 37° C., 5% CO2. To measure direct inhibition of the wild-type FLT3 receptor activity and phosphorylation a sandwich ELISA method was developed similar to those developed for other RTKs (see Sadick, M D, Sliwkowski, M X, Nuijens, A, Bald, L, Chiang, N, Lofgren, J A, Wong W L T. Analysis of Heregulin-Induced ErbB2 Phosphorylation with a High-Throughput Kinase Receptor Activation Enzyme-Linked Immunsorbent Assay, Analytical Biochemistry. 1996; 235:207-214 and Baumann C A, Zeng L, Donatelli R R, Maroney A C. Development of a quantitative, high-throughput cell-based enzyme-linked immunosorbent assay for detection of colony-stimulating factor-1 receptor tyrosine kinase inhibitors. J Biochem Biophys Methods. 2004; 60:69-79.). 200 μL of Baf3FLT3 cells (1×10^6/mL) were plated in 96 well dishes in RPMI 1640 with 0.5% serum and 0.01 ng/mL IL-3 for 16 hours prior to 1 hour compound or DMSO vehicle incubation. Cells were treated with 100 ng/mL Flt ligand (R&D Systems Cat# 308-FK) for 10 min. at 37° C. Cells were pelleted, washed and lysed in 100 ul lysis buffer (50 mM Hepes, 150 mM NaCl, 10% Glycerol, 1% Triton-X-100, 10 mM NaF, 1 mM EDTA, 1.5 mM MgCl2, 10 mM NaPyrophosphate) supplemented with phosphatase (Sigma Cat# P2850) and protease inhibitors (Sigma Cat #P8340). Lysates were cleared by centrifugation at 1000×g for 5 minutes at 4° C. Cell lysates were transferred to white wall 96 well microtiter (Costar #9018) plates coated with 50 ng/well anti-FLT3 antibody (Santa Cruz Cat# sc-480) and blocked with SeaBlock reagent (Pierce Cat#37527). Lysates were incubated at 4° C. for 2 hours. Plates were washed 3× with 200 ul/well PBS/0.1% Triton-X-100. Plates were then incubated with 1:8000 dilution of HRP-conjugated anti-phosphotyrosine antibody (Clone 4G10, Upstate Biotechnology Cat#16-105) for 1 hour at room temperature. Plates were washed 3× with 200 ul/well PBS/0.1% Triton-X-100. Signal detection with Super Signal Pico reagent (Pierce Cat#37070) was done according to manufacturer's instruction with a Berthold microplate luminometer. All data points are an average of triplicate samples. […] Inhibition and IC50 data analysis was done with GraphPad Prism using a non-linear regression fit with a multiparamater, sigmoidal dose-response (variable slope) equation.

IC50 | Compound
175 nM | CO/N=C/c1c(N)ncnc1N1CCC(NC(=O)Nc2ccc(Oc3ccccc3)cc2)CC1 [Number 26, 1-{1-[6-Amino-5-(methoxyimino-methyl)-pyrimidin-4-yl]-piperidin-4-yl}-3-(4-phenoxy-phenyl)-urea]
217 nM | CO/N=C/c1c(N)ncnc1N1CCC(NC(=O)Nc2ccc(OC(C)C)cc2)CC1 [Number 12, 1-{1-[6-Amino-5-(methoxyimino-methyl)-pyrimidin-4-yl]-piperidin-4-yl}-3-(4-isopropoxy-phenyl)-urea]
1300 nM | CO/N=C/c1c(N)ncnc1N1CCC(NC(=O)Nc2ccc(N3CCOCC3)cc2)C1 (centres unmarked) [Number 10, 1-{1-[6-Amino-5-(methoxyimino-methyl)-pyrimidin-4-yl]-pyrrolidin-3-yl}-3-(4-morpholin-4-yl-phenyl)-urea]
40 nM | CO/N=C/c1c(N)ncnc1N1CCC(NC(=O)Nc2ccc(C3CCCCC3)cc2)CC1 [Number 22, 1-{1-[6-Amino-5-(methoxyimino-methyl)-pyrimidin-4-yl]-piperidin-4-yl}-3-(4-cyclohexyl-phenyl)-urea]
74 nM | CCO/N=C/c1c(N)ncnc1N1CCC(OC(=O)Nc2ccc(OC(C)C)cc2)CC1 [Number 2, (4-Isopropoxy-phenyl)-carbamic acid 1-[6-amino-5-(ethoxyimino-methyl)-pyrimidin-4-yl]-piperidin-4-yl ester]
345 nM | CC(C)Oc1ccc(NC(=O)OC2CCN(c3ncnc(N)c3/C=N/OCCCN(C)C)CC2)cc1 [Number 4, (4-Isopropoxy-phenyl)-carbamic acid 1-{6-amino-5-[(3-dimethylamino-propoxyimino)-methyl]-pyrimidin-4-yl}-piperidin-4-yl ester]
35 nM | CO/N=C/c1c(N)ncnc1N1CCC(NC(=O)Nc2ccc(OC3CCCC3)nc2)CC1 [Number 23, 1-{1-[6-Amino-5-(methoxyimino-methyl)-pyrimidin-4-yl]-piperidin-4-yl}-3-(6-cyclopentyloxy-pyridin-3-yl)-urea]
134 nM | CO/N=C/c1c(N)ncnc1N1CCC(NC(=O)Nc2ccc(Oc3ccccc3)cc2)C1 (centres unmarked) [Number 19, 1-{1-[6-Amino-5-(methoxyimino-methyl)-pyrimidin-4-yl]-pyrrolidin-3-yl}-3-(4-phenoxy-phenyl)-urea]
292 nM | CO/N=C/c1c(N)ncnc1N1CCC(NC(=O)Nc2ccc(N3CCOCC3)cc2)CC1 [Number 14, 1-{1-[6-Amino-5-(methoxyimino-methyl)-pyrimidin-4-yl]-piperidin-4-yl}-3-(4-morpholin-4-yl-phenyl)-urea]
299 nM | CO/N=C/c1c(N)ncnc1N1CCC(NC(=O)Nc2ccc(C3CCCCC3)cc2)C1 (centres unmarked) [Number 17, 1-{1-[6-Amino-5-(methoxyimino-methyl)-pyrimidin-4-yl]-pyrrolidin-3-yl}-3-(4-cyclohexyl-phenyl)-urea]
169 nM | CO/N=C/c1c(N)ncnc1N1CCC(CC(=O)Nc2ccc(C(C)C)cc2)CC1 [Number 7, 2-{1-[6-Amino-5-(methoxyimino-methyl)-pyrimidin-4-yl]-piperidin-4-yl}-N-(4-isopropyl-phenyl)-acetamide]
176 nM | CO/N=C/c1c(N)ncnc1N1CCC(NC(=O)Nc2ccc(OC(C)C)cc2)C1 (centres unmarked) [Number 8, 1-{1-[6-Amino-5-(methoxyimino-methyl)-pyrimidin-4-yl]-pyrrolidin-3-yl}-3-(4-isopropoxy-phenyl)-urea]
299 nM | CO/N=C/c1c(N)ncnc1N1CCC(NC(=O)Nc2ccc(N3CCCC3)cc2)C1 (centres unmarked) [Number 20, 1-{1-[6-Amino-5-(methoxyimino-methyl)-pyrimidin-4-yl]-pyrrolidin-3-yl}-3-(4-pyrrolidin-1-yl-phenyl)-urea]
204 nM | CO/N=C/c1c(N)ncnc1N1CCC(OC(=O)Nc2ccc(OC(C)C)cc2)CC1 [Number 1, (4-Isopropoxy-phenyl)-carbamic acid 1-[6-amino-5-(methoxyimino-methyl)-pyrimidin-4-yl]-piperidin-4-yl ester]
4 nM | CO/N=C/c1c(N)ncnc1N1CCC(OC(=O)Nc2ccc(C(C)C)cc2)CC1 [Number 5, (4-Isopropyl-phenyl)-carbamic acid 1-[6-amino-5-(methoxyimino-methyl)-pyrimidin-4-yl]-piperidin-4-yl ester]
15 nM | CO/N=C/c1c(N)ncnc1N1CCC(CC(=O)Nc2ccc(C(C)C)cc2)C1 (centres unmarked) [Number 6, 2-{1-[6-Amino-5-(methoxyimino-methyl)-pyrimidin-4-yl]-pyrrolidin-3-yl}-N-(4-isopropyl-phenyl)-acetamide]
2300 nM | CCNC(=O)NCCO/N=C/c1c(N)ncnc1N1CCC(NC(=O)Nc2ccc(C(C)C)cc2)C1 (centres unmarked) [Number 28, 1-[1-(6-Amino-5-{[2-(3-ethyl-ureido)-ethoxyimino]-methyl}-pyrimidin-4-yl)-pyrrolidin-3-yl]-3-(4-isopropyl-phenyl)-urea]
468 nM | CO/N=C/c1c(N)ncnc1N1CCC(NC(=O)Nc2ccc(N3CCCCC3)cc2)CC1 [Number 13, 1-{1-[6-Amino-5-(methoxyimino-methyl)-pyrimidin-4-yl]-piperidin-4-yl}-3-(4-piperidin-1-yl-phenyl)-urea]
309 nM | CO/N=C/c1c(N)ncnc1N1CCC(NC(=O)Nc2ccc(Cl)cc2)C1 (centres unmarked) [Number 18, 1-{1-[6-Amino-5-(methoxyimino-methyl)-pyrimidin-4-yl]-pyrrolidin-3-yl}-3-(4-chloro-phenyl)-urea]
99 nM | CO/N=C/c1c(N)ncnc1N1CCC(NC(=O)Nc2ccc(OC3CCCC3)nc2)C1 (centres unmarked) [Number 21, 1-{1-[6-Amino-5-(methoxyimino-methyl)-pyrimidin-4-yl]-pyrrolidin-3-yl}-3-(6-cyclopentyloxy-pyridin-3-yl)-urea]
2400 nM | CC(C)c1ccc(NC(=O)NC2CCN(c3ncnc(N)c3/C=N/OCC(=O)N3CCOCC3)C2)cc1 (centres unmarked) [Number 29, 1-(1-{6-Amino-5-[(2-morpholin-4-yl-2-oxo-ethoxyimino)-methyl]-pyrimidin-4-yl}-pyrrolidin-3-yl)-3-(4-isopropyl-phenyl)-urea]

Compound | IC50
CO/N=C/c1c(N)ncnc1N1CCC(NC(=O)Nc2ccc(OC3CCC3)nc2)C1 (centres unmarked) [Number 11, 1-{1-[6-Amino-5-(methoxyimino-methyl)-pyrimidin-4-yl]-pyrrolidin-3-yl}-3-(6-cyclobutoxy-pyridin-3-yl)-urea] | 229 nM
CO/N=C/c1c(N)ncnc1N1CCC(NC(=O)Nc2ccc(OC3CCC3)nc2)CC1 [Number 15, 1-{1-[6-Amino-5-(methoxyimino-methyl)-pyrimidin-4-yl]-piperidin-4-yl}-3-(6-cyclobutoxy-pyridin-3-yl)-urea] | 195 nM
